# Source: ChEMBL document CHEMBL5046276 (J Med Chem, 2022)
# Calls of active or inactive are those of the source. The rule behind the calls is not given here.
# Key:
# Plasmodium falciparum [1] = experiment: Antimalarial activity against asexual blood stage quinine-resistant Plasmodium falcipuram C2A assessed as parasite growth inhibition incubated for 72 hrs by SYBR Green I staining based fluorescence analysis; assay type: functional, organism-based
# Plasmodium falciparum [2] = experiment: Antimalarial activity against asexual blood stage chloroquine-resistant Plasmodium falciparum Dd2 assessed as parasite growth inhibition incubated for 72 hrs by SYBR Green I staining based fluorescence analysis; assay type: functional, organism-based; details: Dd2, 72 h
# [3] = Cytotoxicity against HEK293T cells incubated for 72 hrs by CCK-8 assay; details: human
# [4] = Selectivity index, ratio of IC50 for cytotoxicity against human HepG2 cells to IC50 for antimalarial activity against asexual blood stage wild-type Plasmodium falciparum 3D7; assay type: toxicity, cell-based; details: read-out: Ratio IC50
# [5] = Metabolic stability in mouse liver microsomes assessed as half life at […] incubated for 45 mins in presence of NADPH by LC/MS analysis; assay type: ADME, Microsome; details: liver microsomes
# Plasmodium falciparum [6] = experiment: Antimalarial activity against asexual blood stage sulfadoxine-pyrimethamine/mefloquine-resistant Plasmodium falcipuram CP286 assessed as parasite growth inhibition incubated for 72 hrs by SYBR Green I staining based fluorescence analysis; assay type: functional, organism-based; details: CP286, 72 h
# Plasmodium yoelii [7] = experiment: Antimalarial activity against blood stage Plasmodium yoelii infected in BALB/c mouse assessed as parasite recrudescence by measuring parasitemia at 60 mg/kg, ip qd for 5 days and measured on 12 to 18 days; assay type: functional; details: time 12-18 day
# Plasmodium yoelii [8] = experiment: Antimalarial activity against blood stage Plasmodium yoelii infected in BALB/c mouse assessed as parasite recrudescence by measuring parasitemia at 30 mg/kg, ip qd for 5 days and measured for 8 to 16 days; assay type: functional; details: time 8-16 day
# [9] = Toxicity in BALB/c mouse infected with liver stage transgenic Plasmodium berghei ANKA sporozoites transfected with GFP-Luc assessed as animal death at 30 mg/kg, iv measured on day 4 post-administration; assay type: organism-based; details: in vivo, 96 h, time 4 day
# Plasmodium berghei = experiment: Antimalarial activity against liver stage transgenic Plasmodium berghei ANKA sporozoites transfected with GFP-Luc infected in BALB/c mouse assessed as delayed progression of infection at 30 mg/kg, iv measured for 1 to 4 days post-administration by IVIS spectrum in vivo imaging analysis; assay type: functional, organism-based; details: time 1-4 day
# Plasmodium falciparum [10] = experiment: Antimalarial activity against blood stage asynchronous Plasmodium falcipuram 3D7 assessed as suppression of parasite reproduction by measuring parasitemia at 10 nM incubated for 24 hrs followed by compound washout and replacement with fresh medium without compounds and measured after 4 days by flow cytometry; assay type: functional
# Plasmodium falciparum [11] = experiment: Antimalarial activity against synchronized Plasmodium falcipuram 3D7 infected in human RBC assessed as ring stage parasite killing at 40 nM treated […] and incubated for 12 hrs followed by compound washout and replacement with fresh medium without compounds and measured at 50 hrs post infection by Geimsa staining based microscopy; assay type: functional, organism-based
# Plasmodium falciparum [12] = experiment: (§1) Antimalarial activity against ART-resistant Plasmodium falcipuram 6218 harbouring C580Y mutant infected in human RBC assessed as reduction in parasitemia in blood smear by measuring parasite survival ratio at ring stage at upto 700 nM incubated for 6 hrs followed by compound washout and replacement with fresh medium without compounds and measured after 66 hrs by ring stage survival assay; assay type: functional; details: dose nM <=700, time 6.0 hrs
# Plasmodium falciparum [13] = experiment: as §1, with “6320” for “6218”; assay type: functional; details: dose nM <=700, time 6.0 hrs
# Plasmodium falciparum [14] = experiment: In vivo inhibition of C-terminal TY1 fused HDAC2 in Plasmodium falcipuram 3D7 assessed as inhibition of parasite growth incubated for 4 hrs followed by compound washout and replacement with fresh medium with compounds measured after 68 hrs by SYBR Green I staining based fluorescence analysis; assay type: functional, organism-based
# Plasmodium falciparum [15] = experiment: Inhibition of Plasmodium falcipuram recombinant HDAC1 using HDAC-Glo I/II as substrate at 50 to 800 nM preincubated for 90 mins by luminescence based microplate reader analysis; details: dose 50-800 nM
# Plasmodium falciparum [16] = experiment: In vivo inhibition of C-terminal glmS fused HDAC1 in Plasmodium falcipuram 3D7 assessed as inhibition of parasite growth by measuring downregulation of RBC invasion-related genes expression level by RNA-seq analysis; assay type: functional, organism-based
# Histone deacetylase 1 [17] = biological target: T1, Histone deacetylase 1 (Homo sapiens, UniProt Q13547); experiment: Inhibition of recombinant human full length C-terminal His/FLAG tagged HDAC1 (1 to 482 residues) expressed in baculovirus-infected Sf9 cells using Ac-peptide as substrate incubated for 4 hrs
# Plasmodium falciparum [18] = experiment: In vivo inhibition of C-terminal TY1 fused HDAC1 in Plasmodium falcipuram 3D7 assessed as inhibition of parasite growth by measuring downregulation of RBC invasion-related genes expression level by RNA-seq analysis; assay type: functional, organism-based
# Histone deacetylase 8 = biological target: T2, Histone deacetylase 8 (Homo sapiens, UniProt Q9BY41); experiment: Inhibition of recombinant human full length C-terminal His-tagged HDAC8 expressed in baculovirus-infected Sf9 insect cells using Ac-peptide as substrate incubated for 4 hrs followed by trypsin addition and further incubated for 2 hrs
# T2 sequence (Q9BY41 whole entry): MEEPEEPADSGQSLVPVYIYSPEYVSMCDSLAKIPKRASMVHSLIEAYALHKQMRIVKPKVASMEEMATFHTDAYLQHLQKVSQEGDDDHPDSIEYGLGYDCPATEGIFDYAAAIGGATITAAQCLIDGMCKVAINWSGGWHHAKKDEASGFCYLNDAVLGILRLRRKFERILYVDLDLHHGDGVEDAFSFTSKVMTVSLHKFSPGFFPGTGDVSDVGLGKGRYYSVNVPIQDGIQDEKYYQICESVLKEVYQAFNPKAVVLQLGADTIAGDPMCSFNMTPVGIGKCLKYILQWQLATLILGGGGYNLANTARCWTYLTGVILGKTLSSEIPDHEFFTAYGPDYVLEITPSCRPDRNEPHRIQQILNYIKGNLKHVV
# [19] = Cmax in BALB/c mouse at 5 mg/kg, ip measured upto 24 hrs by LC-MS/MS analysis; assay type: ADME, organism-based; parameters: route intraperitoneal, dose 5 mg/kg, time <=24; details: in vivo
# [20] = Tmax in BALB/c mouse at 5 mg/kg, ip measured after upto 24 hrs by LC-MS/MS analysis; assay type: ADME, organism-based; details: in vivo
# [21] = AUC (0 to last) in BALB/c mouse at 5 mg/kg, ip measured after upto 24 hrs by LC-MS/MS analysis; assay type: ADME, organism-based; parameters: route intraperitoneal, dose 5 mg/kg, time <=24; details: in vivo
# [22] = Apparent clearance in BALB/c mouse at 5 mg/kg, ip measured after upto 24 hrs by LC-MS/MS analysis; assay type: ADME, organism-based; details: in vivo, read-out: CLz/F (converted)
# [23] = Apparent volume of distribution in BALB/c mouse at 5 mg/kg, ip measured after upto 24 hrs by LC-MS/MS analysis; assay type: ADME, organism-based; details: in vivo, read-out: Vz/F
# Histone deacetylase 1 [24] = biological target: T1, Histone deacetylase 1; experiment: Potency index, ratio of test compound IC50 to Quisinostat IC50 for inhibition of recombinant human full length C-terminal His/FLAG tagged HDAC1 (1 to 482 residues) expressed in baculovirus-infected Sf9 cells using Ac-peptide as substrate incubated for 4 hrs
# [25] = Metabolic stability in human liver microsomes assessed as half life at […] incubated for 45 mins in presence of NADPH by LC/MS analysis; assay type: ADME, Microsome
# [26] = Metabolic stability in rat liver microsomes assessed as half life at […] incubated for 45 mins in presence of NADPH by LC/MS analysis; assay type: ADME, Microsome
# Histone deacetylase 3 = Histone deacetylase 3 (Homo sapiens, UniProt O15379); experiment: Potency index, ratio of test compound IC50 to Quisinostat IC50 for inhibition of human C-terminal His tagged HDAC3 (1 to 428 residues) expressed in baculovirus-infected Sf9 cells using Ac-peptide as substrate incubated for 4 hrs
# Chain of Histone deacetylase 3 (O15379 whole entry, the tested form may be a part): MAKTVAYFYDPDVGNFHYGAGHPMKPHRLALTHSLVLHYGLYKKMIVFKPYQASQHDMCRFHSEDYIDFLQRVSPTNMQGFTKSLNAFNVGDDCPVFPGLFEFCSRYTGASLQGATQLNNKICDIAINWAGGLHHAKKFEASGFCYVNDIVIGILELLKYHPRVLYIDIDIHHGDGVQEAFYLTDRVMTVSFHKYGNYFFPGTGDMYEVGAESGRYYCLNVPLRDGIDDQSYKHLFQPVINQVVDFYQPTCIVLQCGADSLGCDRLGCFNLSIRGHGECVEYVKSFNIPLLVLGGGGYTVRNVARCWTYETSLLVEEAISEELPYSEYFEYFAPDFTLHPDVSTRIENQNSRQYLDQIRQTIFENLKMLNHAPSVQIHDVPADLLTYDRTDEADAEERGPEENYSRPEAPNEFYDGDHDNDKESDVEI
# T1 sequence (Q13547 whole entry, the tested form may be a part): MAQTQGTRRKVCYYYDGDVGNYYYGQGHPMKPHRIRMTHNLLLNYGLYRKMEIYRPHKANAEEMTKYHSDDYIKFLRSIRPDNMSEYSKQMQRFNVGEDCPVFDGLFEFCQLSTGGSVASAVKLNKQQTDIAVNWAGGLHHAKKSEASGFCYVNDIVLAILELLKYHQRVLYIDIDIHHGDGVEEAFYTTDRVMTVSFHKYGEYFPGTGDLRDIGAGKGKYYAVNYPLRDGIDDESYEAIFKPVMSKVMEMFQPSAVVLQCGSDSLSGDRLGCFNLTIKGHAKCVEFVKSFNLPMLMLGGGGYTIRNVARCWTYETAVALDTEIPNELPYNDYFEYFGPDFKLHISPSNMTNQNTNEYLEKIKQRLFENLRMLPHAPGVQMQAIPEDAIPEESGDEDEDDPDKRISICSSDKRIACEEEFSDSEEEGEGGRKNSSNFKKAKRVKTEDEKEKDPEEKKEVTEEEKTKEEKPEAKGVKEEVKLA
compound,measurement,setting,value
Cl.Cn1cc(CN2CC3(CCN(c4ncc(C(=O)NO)cn4)C3)C2)c2ccc(C#N)cc21,IC50,Plasmodium falciparum [1],2.18 nM
same,IC50,Plasmodium falciparum [2],1.61 nM
same,IC50 at 72 h,[3],1210 nM
same,selectivity ratio,[4],810
same,half-life,[5],1.34 h
same,IC50,Plasmodium falciparum [6],5.85 nM
same,Activity,Plasmodium yoelii [7],0.11%
same,Activity,Plasmodium yoelii [8],0.02%
same,Activity,[9],Non-Toxic
same,Activity,Plasmodium berghei,Active
same,Activity,Plasmodium falciparum [10],100%
same,Activity,Plasmodium falciparum [11],Active
same,Activity,Plasmodium falciparum [12],Active
same,Activity,Plasmodium falciparum [13],Active
same,inhibition,Plasmodium falciparum [14],Active
same,inhibition,Plasmodium falciparum [15],Active
same,inhibition,Plasmodium falciparum [16],Active
same,IC50,Histone deacetylase 1 [17],2.2 nM
same,inhibition,Plasmodium falciparum [18],Active
same,IC50,Histone deacetylase 8,29.9 nM
same,Cmax,[19],539 ng/mL
same,Tmax,[20],0.25 h
same,AUC(0-t) at 24 h,[21],638 ng·h/mL
same,CL/F,[22],130 mL/min/kg
same,Vd/F,[23],10.2 L/kg
same,Ratio IC50,Histone deacetylase 1 [24],3
same,half-life,[25],> 2 h
same,half-life,[26],> 2 h
same,Ratio IC50,Histone deacetylase 3,3
